The results in this text go back to PubChem BioAssay (NCI).

SMILES strings stand for the structures. Values joined by “and” are separate entries in the source; they are usually repeats but may differ in a detail not shown here. Equal entries are not always repeated.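 Where inhibition never reached the appropriate level, the endpoint shown equals the highest concentration tested. Otherwise, values were interpolated linearly from a five-concentration, 48-hour dose response in 96-well plates. GI50 is the concentration that inhibits growth by half. TGI is the concentration that stops growth completely.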 Where a SMILES comes first, the peptide text is derived from it. The star is where a group is joined. Cbz = O=C(OCc1ccccc1)*; Boc = CC(C)(C)OC(=O)*; OSu = O=C1CCC(=O)N1O*; Bn = c1ccc(C*)cc1

Among the test systems are A549 NSCLC; IGROV1 ovarian; UACC-257 melanoma; NCI-H226 lung; MOLT-4 leukemia; MDA-N; HOP-92 NSCLC; ACHN renal; MDA-MB-435; MCF7 breast; RPMI-8226 leukemia; PC-3 prostate.
Holding throughout (assay): NCI tumour cell line growth inhibition, 48 h

For `CCOC(=O)c1c(-c2ccccc2)c(C)cn1C`, the TGI with A549 NSCLC, in the assay with IGROV1 ovarian, in the assay on UACC-257 melanoma, in the assay with NCI-H226 lung, in the assay with MOLT-4 leukemia and in the assay with MDA-N was greater than 10 µM in each case. Moreover, the TGI in the assay with HOP-92 NSCLC, in the assay on ACHN renal and in the assay with MDA-MB-435 was greater than 10 µM throughout.

Take `Clc1cc2ncn(C3CCCCO3)c2cc1Cl` (stereo not drawn): the TGI was greater than 100 µM with A549 NSCLC; greater than 100 µM in the assay with MCF7 breast; greater than 100 µM in the assay with IGROV1 ovarian; greater than 100 µM with RPMI-8226 leukemia; 80.9 µM in the assay on NCI-H226 lung; greater than 100 µM in the assay on MOLT-4 leukemia. Also, the TGI in the assay on PC-3 prostate, in the assay with MDA-N and in the assay on MDA-MB-435 was greater than 100 µM in each case.

Take `O=C1/C(=C/c2ccc(Cl)cc2)Oc2ccccc21`: the TGI is 35 µM in the assay on A549 NSCLC; greater than 100 µM with MCF7 breast; greater than 100 µM in the assay with UACC-257 melanoma; greater than 100 µM in the assay with RPMI-8226 leukemia; 68 µM with NCI-H226 lung; greater than 100 µM with MOLT-4 leukemia. Moreover, the figures for the TGI with MDA-N, with ACHN renal and in the assay on MDA-MB-435 were greater than 100 µM, 43.4 µM and greater than 100 µM, respectively.

Consider `CCCCCCCc1ccc(-c2nnc(N=Nc3ccc(OCCCCC)cc3)s2)s1`, for which the TGI in the assay with A549 NSCLC, in the assay with MCF7 breast, in the assay with IGROV1 ovarian, in the assay on UACC-257 melanoma, with RPMI-8226 leukemia and in the assay with NCI-H226 lung was greater than 100 µM throughout. The TGI in the assay on MOLT-4 leukemia, with PC-3 prostate, in the assay on MDA-N, in the assay with ACHN renal and in the assay on MDA-MB-435 was greater than 100 µM throughout.

In the case of `CC(=O)C(C(C)=O)[C@H]1OC(C)(C)O[C@H]1[C@H]1COC(C)(C)O1`, the TGI in the assay on A549 NSCLC was greater than 100 µM; in the assay with MCF7 breast it was greater than 100 µM; in the assay on IGROV1 ovarian it was greater than 100 µM; in the assay with UACC-257 melanoma it was greater than 100 µM; in the assay on MOLT-4 leukemia it was greater than 100 µM; in the assay with PC-3 prostate, 68.9 µM. For the same molecule, the TGI in the assay on MDA-N, in the assay with HOP-92 NSCLC, with ACHN renal and in the assay on MDA-MB-435 was greater than 100 µM in each case.

For the molecule `CC[C@@]1(O)C(=O)OCc2c1cc1n(c2=O)Cc2c-1nc1ccccc1c2C=Nc1ccccc1N[C@@H]1c2cc3c(cc2[C@@H](c2cc(OC)c(O)c(OC)c2)[C@H]2C(=O)OC[C@@H]21)OCO3`, the TGI in the assay on A549 NSCLC is 7.62 µM; in the assay with IGROV1 ovarian it was 12.4 µM and 7.63 µM; in the assay with UACC-257 melanoma, 66.7 µM and 11.3 µM; in the assay with RPMI-8226 leukemia it was greater than 50 µM; in the assay on NCI-H226 lung it was 3.05 µM; in the assay on PC-3 prostate it was greater than 65.8 µM. Further, the TGI in the assay on MDA-N is 28 µM and 3.12 µM; with HOP-92 NSCLC, greater than 100 µM; with ACHN renal it was 0.961 µM and 0.171 µM; in the assay with MDA-MB-435 it was 24.3 µM and > 50 µM. The GI50 is less than 0.005 µM with MCF7 breast; 0.544 µM and 0.22 µM in the assay with IGROV1 ovarian; 0.616 µM and 0.183 µM in the assay with MDA-N; 0.358 µM and 0.45 µM with MDA-MB-435.

`COC(=O)c1ccccc1C1CN=NC12Cc1c(C)ccc(C)c1C2=O` (stereo not drawn): the TGI with A549 NSCLC, with MCF7 breast, in the assay on IGROV1 ovarian, with UACC-257 melanoma, with NCI-H226 lung and with MOLT-4 leukemia was greater than 100 µM in each case. For the same molecule, the TGI with PC-3 prostate, in the assay with MDA-N, in the assay with HOP-92 NSCLC, in the assay on ACHN renal and in the assay with MDA-MB-435 was greater than 100 µM each time.

In the case of `Clc1ccc(C2=NCON=C2c2ccc(Cl)cc2)cc1`, the TGI in the assay with A549 NSCLC is greater than 100 µM; in the assay with MCF7 breast, 85.6 µM; with UACC-257 melanoma it was 61.4 µM; in the assay with RPMI-8226 leukemia it was 40.6 µM; in the assay on NCI-H226 lung, 32.7 µM; in the assay with MOLT-4 leukemia it was 42.9 µM. The TGI in the assay with PC-3 prostate worked out at 68.2 µM; in the assay with MDA-N, 56.5 µM; in the assay with HOP-92 NSCLC it was 43.5 µM; with ACHN renal it was 54.9 µM.

Turning to `CCCCCCCCCCCCC1N=C(N)N2CCCC2=C1C(=O)OC` (stereo not drawn), the TGI with A549 NSCLC was 36.2 µM; with IGROV1 ovarian it was 7.94 µM; in the assay on UACC-257 melanoma, 3.73 µM; with NCI-H226 lung, 48.8 µM; with MOLT-4 leukemia, 4.22 µM; in the assay with PC-3 prostate, 3.95 µM. For the same molecule, the TGI in the assay on MDA-N was determined as 4.72 µM; in the assay with HOP-92 NSCLC, 10.3 µM; in the assay on ACHN renal, 19.5 µM; in the assay on MDA-MB-435, 3.09 µM.

For the molecule `Cc1ccc(-n2cc(-c3ccc(Cl)cc3)c3c(=N)n(N)cnc32)cc1`, the TGI with A549 NSCLC stood at 29 µM; in the assay on MCF7 breast, 23.2 µM; in the assay on IGROV1 ovarian, 24.5 µM; in the assay with UACC-257 melanoma it was 21.5 µM; in the assay on NCI-H226 lung, 38.2 µM; with PC-3 prostate, 19.4 µM. The TGI with MDA-N was determined as 23.8 µM; in the assay with HOP-92 NSCLC it was 21.6 µM; in the assay on ACHN renal, 29.7 µM; in the assay on MDA-MB-435, 23.1 µM.

Take `CC(C)=CCCC1(C)C2COC(=O)C21` (stereo not drawn): the TGI in the assay on MCF7 breast, in the assay with IGROV1 ovarian, in the assay on UACC-257 melanoma, in the assay on RPMI-8226 leukemia, in the assay with NCI-H226 lung and in the assay on PC-3 prostate was greater than 100 µM in each case. The TGI with MDA-N is greater than 100 µM; with HOP-92 NSCLC it was > 100 µM and 97.3 µM; with ACHN renal, greater than 100 µM; in the assay on MDA-MB-435, greater than 100 µM. Also, the GI50 with NCI-H226 lung is greater than 100 µM; in the assay with MDA-N it was > 100 µM and 31.7 µM; with HOP-92 NSCLC it was > 100 µM and 34.2 µM; in the assay with MDA-MB-435, > 100 µM and 43.6 µM.

Take `O=C(O)C1(C(O)c2ccccc2)SCCCS1` (stereo not drawn): the TGI in the assay with A549 NSCLC, in the assay with MCF7 breast, in the assay with IGROV1 ovarian, in the assay on UACC-257 melanoma, in the assay with NCI-H226 lung and in the assay with MOLT-4 leukemia was greater than 10 µM each time. In addition, the TGI in the assay with PC-3 prostate, in the assay with MDA-N, in the assay with HOP-92 NSCLC, with ACHN renal and with MDA-MB-435 was greater than 10 µM each time.

In the case of `CC(C)(C)OC(=O)NC(Cc1ccc(OCc2ccccc2)cc1)C(=O)NC(CCCCNC(=O)OCc1ccccc1)C(=O)NC(CCCCNC(=O)OCc1ccccc1)C(=O)ON1C(=O)CCC1=O` (stereo not drawn) (Boc-Tyr(Bn)-Lys(Cbz)-Lys(Cbz)-OSu; configuration not given here), the TGI was greater than 100 µM in the assay with A549 NSCLC; 39.3 µM with MCF7 breast; greater than 100 µM in the assay with IGROV1 ovarian; greater than 100 µM in the assay with UACC-257 melanoma; greater than 100 µM in the assay with RPMI-8226 leukemia; greater than 100 µM in the assay with MOLT-4 leukemia. The TGI in the assay with MDA-N was 45.4 µM; in the assay on HOP-92 NSCLC, greater than 100 µM; with ACHN renal it was greater than 100 µM; with MDA-MB-435, greater than 100 µM.
